Assays:
[1] = Lipophilicity, logD of compound at pH 7.4; assay type: physicochemical; details: buffer
[2] = Metabolic stability in rat Hepatocyte assessed as intrinsic clearance at 0.5 uM incubated for 60 mins by LC-MS/MS analysis; assay type: ADME, tissue-based; details: hepatocytes, 1 h
[3] = Clearance in Wistar Han rat at 1 mg/kg, iv measured upto 7 hrs by LC-MS/MS analysis; assay type: ADME, organism-based; details: in vivo
[4] = Oral bioavailability in Wistar Han rat at 3 mg/kg measured upto 24 hrs by LC-MS/MS analysis; assay type: ADME, organism-based; details: in vivo
[5] = Metabolic stability in human Hepatocyte assessed as intrinsic clearance at 0.5 uM incubated for 120 mins by LC-MS/MS analysis; assay type: ADME, tissue-based; details: hepatocytes, 2 h
[6] = Unbound clearance in Wistar Han rat at 1 mg/kg, iv measured upto 7 hrs by LC-MS/MS analysis; assay type: ADME, organism-based; details: in vivo
[7] = LBF in Wistar Han rat at 1 mg/kg, iv measured upto 7 hrs by LC-MS/MS analysis; assay type: ADME, organism-based; details: in vivo
[8] = Volume of distribution at steady state in Wistar Han rat at 1 mg/kg, iv measured upto 7 hrs by LC-MS/MS analysis; assay type: ADME, organism-based; details: in vivo, read-out: Vdss
[9] = Metabolic stability in dog Hepatocyte assessed as intrinsic clearance at 0.5 uM incubated for 60 mins by LC-MS/MS analysis; assay type: ADME, tissue-based, Canis lupus familiaris; details: hepatocytes, 1 h
[10] = Half life in Wistar Han rat at 1 mg/kg, iv measured upto 7 hrs by LC-MS/MS analysis; assay type: ADME, organism-based; details: in vivo
[11] = Unbound clearance in Beagle dog at 0.5 mg/kg, iv measured upto 24 hrs by LC-MS/MS analysis; assay type: ADME, organism-based, Canis lupus familiaris; details: in vivo
[12] = Oral bioavailability in Beagle dog at 0.5 mg/kg measured upto 24 hrs by LC-MS/MS analysis; assay type: ADME, organism-based, Canis lupus familiaris; details: in vivo
[13] = Clearance in Beagle dog at 0.5 mg/kg, iv measured upto 24 hrs by LC-MS/MS analysis; assay type: ADME, organism-based, Canis lupus familiaris; details: in vivo
[14] = Volume of distribution at steady state in Beagle dog at 0.5 mg/kg, iv measured upto 24 hrs by LC-MS/MS analysis; assay type: ADME, organism-based, Canis lupus familiaris; details: in vivo, read-out: Vdss
[15] = LBF in Beagle dog at 0.5 mg/kg, iv measured upto 24 hrs by LC-MS/MS analysis; assay type: ADME, organism-based, Canis lupus familiaris; details: in vivo
[16] = Half life in Beagle dog at 0.5 mg/kg, iv measured upto 24 hrs by LC-MS/MS analysis; assay type: ADME, organism-based, Canis lupus familiaris; details: in vivo

| logD [1] | CLH [2] [mL/min/g] | SMILES | further results |
| --- | --- | --- | --- |
| 3.9 | 3.2 | CNC(=O)c1cc(C(=O)NC2CC2)cc2c1O[C@H](CF)[C@H]2c1ccccc1 | – |
| 3.6 | 2 | CNC(=O)c1cc(C(=O)NC2CC2)cc2c1OC[C@H]2c1ccccc1 | clearance [3]: 34 mL/min/kg; bioavailability [4]: 47%; CLH [5]: < 0.5 mL/min/g; CL free [6]: 723 mL/min/kg; LBF [7]: 43%; Vd [8]: 0.6 L/kg; CLH [9]: < 0.7 mL/min/g; half-life [10]: 18 min |
| 2.9 | 3.3 | CNC(=O)c1cc(C(=O)N[C@H]2[C@@H]3C[C@@H](O)C[C@@H]32)cc2c1OC[C@H]2c1ccccc1 | – |
| 3.5 | 20.1 | CNC(=O)c1cc(C(=O)Nc2cnn(C)c2)cc2c1OC[C@H]2c1ccccc1 | – |
| 3.2 | – | CNC(=O)c1cc(C(=O)NC)c2c(c1)[C@H](c1ccccc1)CO2 | – |
| 3.8 | 6.1 | CNC(=O)c1cc(C(=O)NC2CC2)cc2c1OC[C@H]2c1ccc(F)cc1 | – |
| 2.7 | – | CNC(=O)c1cc(C(N)=O)cc2c1OC[C@H]2c1ccccc1 | – |
| 3.3 | 8.6 | CNC(=O)c1cc(C(=O)N[C@H]2[C@@H]3COC[C@@H]32)cc2c1OC[C@H]2c1ccccc1 | – |
| 3.5 | 4.6 | CNC(=O)c1cc(C(=O)NC2CC2)cc2c1OC[C@H]2c1cccc2[nH]ccc12 | – |
| 3.7 | 10 | CNC(=O)c1cc(C(=O)NC2CC2)cc2c1OC[C@H]2c1cccc(F)c1 | – |
| 4.5 | – | CNC(=O)c1cc(C(=O)N[C@H]2C[C@@H]2C)cc2c1OC[C@H]2c1ccccc1 | – |
| 3.8 | – | CNC(=O)c1cc(C(=O)NC2CC2)cc2c1OC[C@H]2c1cccc(OC)c1 (racemic) | – |

Second part, the compound before the results:

| SMILES | logD [1] | CLH [2] [mL/min/g] | further results |
| --- | --- | --- | --- |
| CNC(=O)c1cc(C(=O)NC)c2c(c1)[C@H](c1ccccc1)[C@@H](CF)O2 | 3.3 | 3 | – |
| CNC(=O)c1cc(C(=O)NCCC[C@H]2OC[C@H](N)CO2)cc2c1O[C@H](CF)[C@H]2c1ccccc1 | 2.9 | 1.1 | – |
| CNC(=O)c1cc(C(N)=O)cc2c1O[C@H](CF)[C@H]2c1ccccc1 | 2.9 | – | – |
| CNC(=O)c1cc(C(=O)N[C@H]2C[C@@H]2C)cc2c1OC[C@@]2(C)c1ccccc1 | 4.7 | – | – |
| CNC(=O)c1cc(C(=O)N[C@H]2[C@@H]3COC[C@@H]32)cc2c1OC[C@H]2c1ccc(F)cc1 | 3.6 | 14.8 | – |
| CNC(=O)c1cc(C(=O)NC)c2c(c1)[C@](C)(c1ccccc1)CO2 | 3.4 | – | – |
| CNC(=O)c1cc(C(=O)N[C@H]2[C@@H]3COC[C@@H]32)cc2c1OC[C@@]2(C)c1ccccc1 | 3.7 | 1.2 | clearance [3]: 61 mL/min/kg; bioavailability [4]: 54%; CLH [5]: < 0.5 mL/min/g; CL free [6]: 274 mL/min/kg; LBF [7]: 77%; Vd [8]: 1.6 L/kg; CLH [9]: < 0.7 mL/min/g; half-life [10]: 18 min |
| CNC(=O)c1cc(C(=O)N[C@H]2C[C@@H]2C)cc2c1OC[C@@]2(CO)c1ccccc1 | 3.3 | 2.7 | clearance [3]: 60 mL/min/kg; bioavailability [4]: 38%; CLH [5]: < 0.5 mL/min/g; CL free [6]: 340 mL/min/kg; LBF [7]: 60%; Vd [8]: 1.2 L/kg; CLH [9]: 1 mL/min/g; half-life [10]: 18 min |
| CNC(=O)c1cc(C(=O)N[C@H]2[C@@H]3C[C@H](O)C[C@@H]32)cc2c1OC[C@@]2(C)c1ccccc1 | 3.7 | 6.4 | – |
| CNC(=O)c1cc(C(=O)N[C@H]2CC[C@H](O)CC2)cc2c1OC[C@@]2(C)c1ccccc1 | 3.3 | – | – |
| CNC(=O)c1cc(C(=O)N[C@H]2[C@@H]3COC[C@@H]32)cc2c1OC[C@H]2C1CCOCC1 | 2.1 | – | – |
| CNC(=O)c1cc(C(=O)NCCC[C@H]2OC[C@H](N)CO2)cc2c1OC[C@H]2c1ccccc1 | 2.6 | – | – |
| CNC(=O)c1cc(C(=O)NCCc2cnn(C)c2)cc2c1OC[C@H]2c1ccccc1 | 3.2 | – | – |
| CNC(=O)c1cc(C(=O)N[C@H]2[C@@H]3COC[C@@H]32)cc2c1OC[C@H]2c1ccccc1C | 4 | 30.9 | – |
| CNC(=O)c1cc(C(=O)NCCc2cnn(C)c2)cc2c1OC[C@H]2c1cccc2[nH]ccc12 | 3.2 | 16.3 | – |
| CNC(=O)c1cc(C(=O)N[C@@H]2C[C@H]2C)cc2c1O[C@H](CF)[C@H]2c1ccccc1 | 4.5 | – | – |
| CCC(=O)N1C[C@@H]2[C@H](C1)[C@H]2NC(=O)c1cc(C(=O)NC)c2c(c1)[C@H](c1ccccc1)CO2 | 3.4 | 6.8 | – |
| CNC(=O)c1cc(C(=O)N[C@H]2[C@@H]3C[C@@H](O)C[C@@H]32)cc2c1OC[C@@]2(C)c1ccccc1 | 3.3 | 1 | clearance [3]: 55 mL/min/kg; CL free [11]: 24 mL/min/kg; bioavailability [12]: 64%; bioavailability [4]: 32%; clearance [13]: 5 mL/min/kg; CLH [5]: < 0.5 mL/min/g; CL free [6]: 260 mL/min/kg; LBF [7]: 69%; Vd [14]: 0.9 L/kg; Vd [8]: 2.3 L/kg; CLH [9]: < 0.7 mL/min/g; LBF [15]: 8%; half-life [10]: 42 min; half-life [16]: 174 min |
| CNC(=O)c1cc(C(=O)NC2CC2)cc2c1OC[C@@]2(C)c1ccccc1 | 4 | 6.7 | – |
| CNC(=O)c1cc(C(=O)N[C@H]2[C@@H]3COC[C@@H]32)cc2c1OC[C@H]2c1cccc2[nH]ccc12 | 3.1 | 3.6 | – |
| CNC(=O)c1cc(C(=O)N[C@H]2[C@@H]3COC[C@@H]32)cc2c1OC[C@@]2(CO)c1ccccc1 | 2.4 | 1.4 | – |
| CC[C@@]1(c2ccccc2)COc2c(C(=O)NC)cc(C(=O)N[C@H]3[C@@H]4COC[C@@H]43)cc21 | 4.2 | – | – |
| CNC(=O)c1cc(C(=O)N[C@H]2[C@@H]3COC[C@@H]32)cc2c1OC[C@H]2c1ccccn1 (racemic) | 1.6 | – | – |
| CNC(=O)c1cc(C(=O)N[C@H]2[C@@H]3COC[C@@H]32)cc2c1OC[C@H]2c1cccnc1 (racemic) | 1.4 | – | – |
| CNC(=O)c1cc(C(=O)N[C@H]2[C@@H]3COC[C@@H]32)cc2c1OC[C@H]2c1ccncc1 (racemic) | 1.3 | – | – |
| CNC(=O)c1cc(C(=O)N[C@H]2[C@@H]3COC[C@@H]32)cc2c1OC[C@H]2c1cccc(OC)c1 (racemic) | 3.2 | – | – |
| CNC(=O)c1cc(C(=O)NC2CC2)cn(Cc2ccccc2)c1=O [GSK620] | 3.1 | 1 | – |
| CNC(=O)c1cc(C(=O)N[C@H]2[C@@H]3COC[C@@H]32)cc2c1O[C@H](CF)[C@H]2c1ccccc1 [GSK973] | 3.6 | 1.8 | – |
